Patent US5955471A, “Tetrahydroisoquinolinealkanol derivatives and pharmaceutical compositions containing same” (SK Corporation, priority 1998, dated 1999)

Assays:
MAO-A = MAO-A inhibiting activity in vitro, rat liver mitochondrial membranes; assay type: biochemical; settings: 10 uM; 300 nM deprenyl to block MAO-B; 60 minutes preincubation, 37° C., pH 7.2; [14C] Serotonin
Experimental: The MAO-A activities in vitro were measured using Rat liver mitochondrial membranes as the source of the enzyme, according to a modified method of S. Otsuka & Y. Kobayashi: A Radioisotopic Assay for Monoamine Oxidase Determinations in Human Plasma. Biochem. Pharmacol. 13: 995-1006 (1964)
Rat liver mitochondrial membranes are preincubated with drug or vehicle, and subtype selective blocker (300 nM deprenyl to block the B type of MAO) for 60 minutes at 37° C. in 100 mM KPO4 (pH 7.2). [^14 C] Serotonin ([…]) is then added and incubated for 10 minutes. The reaction is stopped by the addition of 0.5 ml of 2M citric acid. Radioactive product is extracted into a toluene/ethyl acetate fluor and compared to control values by scintillation spectrophotometry in order to ascertain any interactions of test compounds with MAO-A.

[1] = Behavior Despair (Forced Swimming) test in rats (po); assay type: in vivo; settings: 60 mg/kg (po), 4-minute test period, vs control vehicle
Experimental: (§1) Behavior Despair (Forced Swimming) test, a well known pharmacological screening method for depression, was conducted similary to the test described by Porsolt, R. D., Bertin, A and Jalfre, M.: Behavior despair in mice: A preliminary screening test for antidepressants. Arch. Int. Pharmacodyn. Ther. 229: 327-336, 1977.
Rats were pre-swam for 10 minutes the day before the test in 4000 mL glass cylinders containing water at 25° C. On the following day, rats were dosed orally (po) with either test compound or vehicle. One hour later each animal was placed in a glass cylinder and, following a 2-minute pretest, immobility was recorded for a 4-minute test period. For calculation of percent (%) reduction in immobility time, the difference in immobility time for control vehicle versus the drug is divided by the immobility time of the control vehicle and multiplied by 100.

[2] = system: 5-HT-mediated head-twitch response; assay: Head-Twitch Test (5-HTP-induced head-twitch response in mice); assay type: in vivo; settings: oral, vs control vehicle
Experimental: The head-twitch response of mice is initiated by a variety of 5-HT mimetic drugs. The test was conducted in a manner similar to the procedure described by Heal, D. J., Philpot, J, O'Shaughnessy, K. M. and Davies, C. L.: The influence of central noradrenergic function on 5-HT-mediated head-twitch responses in mice: Possible implications for the actions of antidepressant drugs. Psychopharmacology 89: 414-420, 1986,
The head-twitch consisted of a characteristic rotation of the head, neck and shoulders of the mice. The test drug or vehicle was given by oral gavage. Thirty minutes later all animals were pretreated with carbidopa (25 mg/kg ip). Fifteen minutes following carbidopa administration, the mice were injected with 100 mg/kg ip of L-5-hydroxytryptophan (5-HTP). The animals were then left for 30 minutes before measurement of the head-twitch response in the following 2-minute period. For calculation of percent (%) response increase, the difference in drug head twitch number versus the control vehicle head twitch number is divided by the control head twitch and multiplied by 100.

[3] = Behavior Despair (Forced Swimming) test in mice (ip); assay type: in vivo; settings: 30 mg/kg (ip), 15-minute test period, vs control vehicle
Experimental: as §1
Mice were dosed intraperitoneally (ip) with either test compound or vehicle. One hour later each animal was placed in a 1500 mL glass beaker containing water at room temperature. Mice were kept in the water for a period of 15 minutes and the duration of immobility observed within the 15-minute test period was recorded. A mouse was judged to be immobile if it floated motionlessly in the water making only those movements necessary to keep its head above the water. For calculation of percent (%) reduction in immobility time, the difference in immobility time for control vehicle versus the drug is divided by the immobility time of the control vehicle and multiplied by 100.

NC(=O)OC[C@@H]1Cc2ccccc2CN1 [Example 3, (S)-3-Carbamoyloxymethyl-1,2,3,4-tetrahydroisoquinoline]
% Inhibition (MAO-A) (MAO-A): 97.7% | % Reduction (immobility time) [1]: 83% | % Response Increase ([2]; 1 mg/kg): 238%

NC(=O)OC[C@H]1Cc2ccccc2CN1 [Example 4, (R)-3-Carbamoyloxymethyl-1,2,3,4-tetrahydroisoquinoline]
% Inhibition (MAO-A) (MAO-A): 63.9% | % Response Increase ([2]; 15 mg/kg): 258%

NC(=O)OC[C@@H]1Cc2ccccc2CN1 [Example 5, (S)-3-Carbamoyloxymethyl-1,2,3,4-tetrahydroisoquinoline]
% Response Increase ([2]; 3 mg/kg): 144%

CN1Cc2ccccc2C[C@H]1COC(N)=O [Example 8, (S)-3-Carbamoyloxymethyl-N-methyl-1,2,3,4-tetrahydroisoquinoline]
% Response Increase ([2]; 1 mg/kg): 77%

NC(=S)OCC1Cc2ccccc2CN1 (centres unmarked) [Example 14, 3-Thiocarbamoyloxymethyl-1,2,3,4-tetrahydroisoquinoline]
% Response Increase ([2]; 8 mg/kg): 42%

CNC(=S)OC[C@@H]1Cc2ccccc2CN1 [Example 16, (S)-3-(N-Methylthiocarbamoyloxymethyl)-1,2,3,4-tetrahydroisoquinoline]
% Reduction (immobility time) [3]: 56%

CNC(=S)OC[C@@H]1Cc2ccccc2CN1C(=O)Nc1ccccc1 [Example 17, (S)-3-(N-Methyl-thiocarbamoyloxymethyl)-N-(anilinocarbonyl)-1,2,3,4-tetrahydroisoquinoline]
% Reduction (immobility time) [3]: 46%

CNC(=S)OC[C@@H]1Cc2ccccc2CN1C [Example 18]
% Reduction (immobility time) [3]: 33%
